# Measurements reported in ChEMBL document CHEMBL5725522, “Inhibitors of bruton's tyrosine kinase” (2017).
# Target: Tyrosine-protein kinase BTK (Homo sapiens, UniProt Q06187)
# Test: TR-FRET (Time Resolved FRET) Assay: This BTK competition assay measures compound potency (IC50) for the inactivated state of Bruton's Tyrosine Kinase using FRET (Förster/Fluorescence Resonance Energy Transfer) technology. The BTK-Eu complex was incubated on ice one hour prior to use at a starting concentration of 50 nM BTK-Bioease: 10 nM Eu-streptavidin (Perkin-Elmer Catalog#AD0062). The assay buffer consisted of 20 mM HEPES (pH 7.15), 0.1 mM DTT, 10 mM MgCl2, 0.5 mg/ml BSA with 3% Kinase Stabilizer (Fremont Biosolutions, Catalog #STB-K02). After 1 h, the reaction mixture from above was diluted 10 fold in assay buffer to make 5 nM BTK: 1 nM Eu-Streptavidin complex (donor fluorophore). 18 μl of a mixture of 0.11 nM BTK-Eu and 0.11 nM Kinase Tracer 178 (Invitrogen, Catalog #PV5593,) with BTK-Eu alone as no negative control, was then dispensed into 384-well flat bottom plates (Greiner, 784076). Compounds to be tested in assay were prepared as 10× concentrations and serial dilution in half-log increments was performed in DMSO so as to generate 10 point curves. […]
# Chain of Tyrosine-protein kinase BTK (Q06187 whole entry): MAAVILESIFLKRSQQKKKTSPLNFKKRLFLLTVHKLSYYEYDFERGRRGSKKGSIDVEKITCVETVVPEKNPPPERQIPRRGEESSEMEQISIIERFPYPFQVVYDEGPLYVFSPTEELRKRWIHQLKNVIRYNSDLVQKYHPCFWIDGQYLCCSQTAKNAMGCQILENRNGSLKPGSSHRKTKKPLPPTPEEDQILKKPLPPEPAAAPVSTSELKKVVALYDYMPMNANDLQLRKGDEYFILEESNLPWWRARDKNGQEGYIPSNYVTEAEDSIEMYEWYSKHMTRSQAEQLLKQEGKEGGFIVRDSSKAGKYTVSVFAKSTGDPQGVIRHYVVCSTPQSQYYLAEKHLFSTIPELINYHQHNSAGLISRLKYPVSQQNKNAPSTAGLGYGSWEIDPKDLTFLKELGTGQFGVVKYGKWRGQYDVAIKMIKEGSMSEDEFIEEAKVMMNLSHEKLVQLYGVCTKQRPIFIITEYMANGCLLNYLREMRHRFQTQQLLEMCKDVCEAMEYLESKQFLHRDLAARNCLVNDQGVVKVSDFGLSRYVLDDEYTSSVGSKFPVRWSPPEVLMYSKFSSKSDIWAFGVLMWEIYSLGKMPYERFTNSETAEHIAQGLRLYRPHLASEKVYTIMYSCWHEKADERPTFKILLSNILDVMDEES
row,SMILES,IC50 [nM]
1,O=C(c1cc2cc(C(=O)N3CCOCC3)ccc2[nH]1)c1cnn2c1[nH]c(=O)c1cc(Oc3cccc(F)c3F)ccc12,> 100000
2,CN1CCC(NC(=O)c2ccc3[nH]c(C(=O)c4cnn(-c5ccc(Oc6ccccc6C(=O)N(C)C)cc5Cl)c4N)cc3c2)C1 (configuration not stated),2.9
